From patent US9334264B2, “NAMPT inhibitors” (AbbVie Inc., priority 2012, dated 2016) come the findings set out here.

Experiment [1] concerns the target NAMPT (human, recombinant, C-terminally His-tagged) (Homo sapiens, UniProt P43490). Briefly: Time-Resolved Fluorescence Resonance Energy Transfer (TR-FRET) Binding Assay of NAMPT. Conditions: absence of substrates; 6.8 nM NAMPT, 200 nM probe, equilibrated 3 hours. An outline of the steps: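 Displacement of 200 nM Oregon Green-labelled nicotinamide-competitive probe from 6.8 nM His-tagged NAMPT, detected with 1 nM Tb-anti-His; HEPES pH 7.5, 2% DMSO, 3 h room temperature. Em520/Em495 ratios normalized and fit four-parameter logistic for IC50.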

The next experiment addresses NAMPT (Homo sapiens, UniProt P43490). Briefly: Time-Resolved Fluorescence Resonance Energy Transfer (TR-FRET) Binding Assay of NAMPT with PRPP. Conditions: 200 μM PRPP and 2.5 mM ATP; 2 nM NAMPT, 2 nM probe, equilibrated 16 hours. An outline of the steps:
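Binding was measured by TR-FRET with 2 nM NAMPT, 2 nM probe and 1 nM Tb-anti-His antibody in the presence of 200 μM PRPP and 2.5 mM ATP, with 2% DMSO. Equilibration lasted 16 h before reading, allowing possible enzymatic modification of compounds.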

SMILES strings stand for the structures. Where only a bound is given, the exact number is not on record here.

Chain of NAMPT (human, recombinant, C-terminally His-tagged) (P43490 whole entry): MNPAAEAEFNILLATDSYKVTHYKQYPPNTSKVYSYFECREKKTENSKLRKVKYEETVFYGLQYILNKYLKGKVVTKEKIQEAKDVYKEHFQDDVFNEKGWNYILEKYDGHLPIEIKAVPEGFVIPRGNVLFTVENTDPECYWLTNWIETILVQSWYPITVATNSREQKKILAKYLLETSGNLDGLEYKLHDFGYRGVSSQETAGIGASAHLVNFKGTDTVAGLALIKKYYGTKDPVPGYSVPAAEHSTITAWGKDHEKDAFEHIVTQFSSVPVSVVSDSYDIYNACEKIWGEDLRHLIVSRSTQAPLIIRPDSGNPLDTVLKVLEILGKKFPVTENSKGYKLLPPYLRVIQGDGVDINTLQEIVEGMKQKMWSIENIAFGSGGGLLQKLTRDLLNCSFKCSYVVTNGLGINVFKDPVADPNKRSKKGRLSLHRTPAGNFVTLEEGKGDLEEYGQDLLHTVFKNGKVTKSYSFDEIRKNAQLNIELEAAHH
Chain of NAMPT (P43490 whole entry): as above

Turning to `O=C(NCCCn1ccnc1)c1cnc(N(Cc2ccc(F)cc2)C(=O)NCC2CCCO2)s1` (stereo not shown) [Example 79, 2-{(4-fluorobenzyl)[(tetrahydrofuran-2-ylmethyl)carbamoyl]amino}-N-[3-(1H-imidazol-1-yl)propyl]-1,3-thiazole-5-carboxamide], the IC50 turned out to be 6580 nM in experiment [1] and 2.77 nM on NAMPT.
As to `COCC(C)NC(=O)N(Cc1ccc(F)cc1)c1ncc(C(=O)NCCCn2ccnc2)s1` (stereo not shown) [Example 80, 2-{(4-fluorobenzyl)[(1-methoxypropan-2-yl)carbamoyl]amino}-N-[3-(1H-imidazol-1-yl)propyl]-1,3-thiazole-5-carboxamide], the IC50 in experiment [1] amounted to 8020 nM; on NAMPT it was 1.37 nM.
As for `O=C(NCCCn1ccnc1)c1cnc(N(Cc2ccc(F)cc2)C(=O)NCC2CCCCO2)s1` (stereo not shown) [Example 81, 2-{(4-fluorobenzyl)[(tetrahydro-2H-pyran-2-ylmethyl)carbamoyl]amino}-N-[3-(1H-imidazol-1-yl)propyl]-1,3-thiazole-5-carboxamide], the IC50 in experiment [1] was determined as 5280 nM; at NAMPT it was 1.78 nM.
Take `COCCNC(=O)N(Cc1ccc(F)cc1)c1ncc(C(=O)NCCCn2ccnc2)s1` [Example 82, 2-{(4-fluorobenzyl)[(2-methoxyethyl)carbamoyl]amino}-N-[3-(1H-imidazol-1-yl)propyl]-1,3-thiazole-5-carboxamide]: the half-inhibitory concentration (IC50) in experiment [1] was 7540 nM; on NAMPT it was 1.72 nM.
The corresponding values for `CCOCCNC(=O)N(Cc1ccc(F)cc1)c1ncc(C(=O)NCCCn2ccnc2)s1` [Example 83, 2-{[(2-ethoxyethyl)carbamoyl](4-fluorobenzyl)amino}-N-[3-(1H-imidazol-1-yl)propyl]-1,3-thiazole-5-carboxamide] are 2890 nM and 0.998 nM.
Consider `CCC(COC)NC(=O)N(Cc1ccc(F)cc1)c1ncc(C(=O)NCCCn2ccnc2)s1` (stereo not shown) [Example 84, 2-{(4-fluorobenzyl)[(1-methoxybutan-2-yl)carbamoyl]amino}-N-[3-(1H-imidazol-1-yl)propyl]-1,3-thiazole-5-carboxamide], for which the IC50 in experiment [1] worked out at 3200 nM; on NAMPT, 1.72 nM.
With `O=C(NCCCn1ccnc1)c1cnc(N(Cc2ccc(F)cc2)C(=O)NCC2OCCO2)s1` [Example 86, 2-{[(1,3-dioxolan-2-ylmethyl)carbamoyl](4-fluorobenzyl)amino}-N-[3-(1H-imidazol-1-yl)propyl]-1,3-thiazole-5-carboxamide], the IC50 is above 10000 nM in experiment [1] and 2.66 nM at NAMPT.
As to `CC(C)OCCNC(=O)N(Cc1ccc(F)cc1)c1ncc(C(=O)NCCCn2ccnc2)s1` [Example 87, 2-[(4-fluorobenzyl){[2-(propan-2-yloxy)ethyl]carbamoyl}amino]-N-[3-(1H-imidazol-1-yl)propyl]-1,3-thiazole-5-carboxamide], the IC50 came out at 2260 nM in experiment [1] and 1.26 nM at NAMPT.
Take `O=C(NCCCn1ccnc1)c1cnc(N(Cc2ccc(F)cc2)C(=O)NCC2COCCO2)s1` (stereo not shown) [Example 88, 2-{[(1,4-dioxan-2-ylmethyl)carbamoyl](4-fluorobenzyl)amino}-N-[3-(1H-imidazol-1-yl)propyl]-1,3-thiazole-5-carboxamide]: the IC50 was above 10000 nM in experiment [1] and 0.602 nM on NAMPT.
The corresponding values for `COCC(COC)NC(=O)N(Cc1ccc(F)cc1)c1ncc(C(=O)NCCCn2ccnc2)s1` [Example 89, 2-{[(1,3-dimethoxypropan-2-yl)carbamoyl](4-fluorobenzyl)amino}-N-[3-(1H-imidazol-1-yl)propyl]-1,3-thiazole-5-carboxamide] are 5830 nM and 1.98 nM.
The corresponding values for `CCC(CNC(=O)N(Cc1ccc(F)cc1)c1ncc(C(=O)NCCCn2ccnc2)s1)OC` (stereo not shown) [Example 90, 2-{(4-fluorobenzyl)[(2-methoxybutyl)carbamoyl]amino}-N-[3-(1H-imidazol-1-yl)propyl]-1,3-thiazole-5-carboxamide] are above 10000 nM and 2.25 nM.

What is called IC50 is the concentration at which inhibition is half-maximal.
